Format in all cases: physicochemical
Series [1] can be described thus: Cumulative in vitro dissolution of felodipine and metoprolol (Example 1 tablet), USP dissolution apparatus No. 2, 50 rpm, pH 6.5 with 1% sodium dodecylsulphate. The note with it: pH 6.5, 1% sodium dodecylsulphate. The protocol:
Cumulative in vitro dissolution of felodipine and metoprolol in
a phosphate buffer of pH 6.5 with 1% sodium dodecylsulphate.
Method: USP dissolution apparatus No. 2, 50 rpm.

Series [2] in a line: Cumulative in vitro dissolution of metoprolol (Reference example B tablet), USP dissolution apparatus No. 2, 50 rpm, phosphate buffer pH 6.8. The note with it: phosphate buffer pH 6.8, 50 rpm. The text has this: The dissolution rate in vitro from this tablet is shown in Table 3. |Cumulative in vitro dissolution of metoprolol in a phosphate buffer |pH 6.8. |Method: […]
A short description of series [3]: Cumulative in vitro dissolution of nifedipine and metoprolol (Example 2 tablet), USP dissolution apparatus No. 2, 100 rpm, pH 6.5 with 1% sodium dodecylsulphate. The note with it: pH 6.5, 1% sodium dodecylsulphate.

As to `CCOC(=O)C1=C(C)NC(C)=C(C(=O)OC)C1c1cccc(Cl)c1Cl` (stereo not drawn) [felodipine, 4-(2,3-dichlorophenyl)-1,4-dihydro-2,6-dimethyl-3,5-pyridinedicarboxylic acid ethyl methyl ester], the “Percent released over time (h)” value in series [1] (0 h) turned out to be 0%; in series [1] (2 h), 14%; in series [1] (4 h) it was 32%; in series [1] (8 h) it was 64%; in series [1] (12 h), 88%; in series [1] (16 h), 96%. Besides, the “Percent released over time (h)” value in series [1] (20 h) is listed as 98%.

Turning to `COCCc1ccc(OCC(O)CNC(C)C)cc1` (stereo not drawn) [metoprolol], the “Percent released over time (h)” value is reported as 0% in series [2] (0 h); 23% in series [2] (1 h); 59% in series [2] (4 h); 86% in series [2] (8 h); 99% in series [2] (12 h); 100% in series [2] (20 h). Also, the “Percent released over time (h)” value in series [1] (0 h) was found to be 0%; in series [1] (2 h), 5%; in series [1] (4 h) it was 16%; in series [1] (8 h) it was 39%; in series [1] (12 h), 65%; in series [1] (16 h), 86%. Further, the “Percent released over time (h)” value is 95% in series [1] (20 h); 0% in series [3] (0 h); 6% in series [3] (2 h); 16% in series [3] (4 h); 34% in series [3] (8 h); 50% in series [3] (12 h). Besides, the entries for the “Percent released over time (h)” value in series [3] (16 h) and in series [3] (20 h) were 62% and 75%, respectively.
